The term pIC50 denotes the negative decadic logarithm of the IC50, by convention in mol/L. Higher therefore signals a small IC50.

pIC50: −log10 of the molar value.

For this assay, the target named is T1, dihydrolipoamide acyltransferase (DlaT) (Mycobacterium tuberculosis, UniProt P9WIS7).
T1 sequence (P9WIS7 1-553): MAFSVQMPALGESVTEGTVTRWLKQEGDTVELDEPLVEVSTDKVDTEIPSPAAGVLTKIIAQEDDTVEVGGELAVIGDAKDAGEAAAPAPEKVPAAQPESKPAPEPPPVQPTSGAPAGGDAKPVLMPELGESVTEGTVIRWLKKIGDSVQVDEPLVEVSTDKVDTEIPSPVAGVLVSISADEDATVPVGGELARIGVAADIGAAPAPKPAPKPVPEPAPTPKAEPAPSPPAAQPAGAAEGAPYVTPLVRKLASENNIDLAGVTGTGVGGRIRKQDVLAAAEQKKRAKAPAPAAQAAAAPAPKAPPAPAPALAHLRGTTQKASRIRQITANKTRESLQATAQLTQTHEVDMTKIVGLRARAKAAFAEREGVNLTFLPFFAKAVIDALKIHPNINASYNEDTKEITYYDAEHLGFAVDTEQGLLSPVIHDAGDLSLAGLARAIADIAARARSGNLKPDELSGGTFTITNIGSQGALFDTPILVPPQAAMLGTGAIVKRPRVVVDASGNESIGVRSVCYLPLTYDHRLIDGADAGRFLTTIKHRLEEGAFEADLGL
Put plainly: DlaT inhibition (Dlat IC50); DTNB peroxidase assay with Lpd, DlaT and AhpD. It counts as biochemical. As to conditions: Dlat IC50 category.
As to `O=C(O)C(c1ccccc1)N1C(=O)C(=Cc2ccc(-c3ccc(Oc4ccccc4)cc3)o2)SC1=S` (stereo not shown) [Compound B28], the negative-log IC50 (pIC50) was 4.40 to 4.96.

`O=C(O)C(c1ccccc1)N1C(=O)C(=Cc2ccc(-c3ccc(O)cc3)o2)SC1=S` (stereo not shown) [Compound B29] showed a pIC50 of 4.40 to 4.96.

For `O=C(O)CN1C(=O)C(=Cc2ccc(-c3ccc(Cc4ccccc4)cc3)o2)SC1=S` [Compound B30], the pIC50 was above 5.00.

The molecule `O=C(O)CCN1C(=O)C(=Cc2ccc(-c3ccc(Cc4ccccc4)cc3)o2)SC1=S` [Compound B31] had a pIC50 above 5.00.

The molecule `O=C(O)C(c1ccccc1)N1C(=O)C(=Cc2ccc(-c3ccc(Cc4ccccc4)cc3)o2)SC1=S` (stereo not shown) [Compound B32] gave a pIC50 above 5.00.

In turn, `O=C(O)CCCCCN1C(=O)C(=Cc2ccc(-c3ccc(Cc4ccccc4)cc3)o2)SC1=S` [Compound B33] had a pIC50 of 4.40 to 4.96.

`O=C(O)CCCCCN1C(=O)C(=Cc2ncc(-c3cccc(Cl)c3)o2)SC1=S` [Compound B34] had a pIC50 of 4.40 to 4.96.

With `O=C(O)C(c1ccccc1)N1C(=O)C(=Cc2ncc(-c3cccc(Cl)c3)o2)SC1=S` (stereo not shown) [Compound B35], the pIC50 is 4.40 to 4.96.

With `O=C(O)[C@@H](c1ccccc1)N1C(=O)C(=Cc2ccc(-c3ccc(Cl)cc3)o2)SC1=S` [Compound B36], the pIC50 is above 5.00.

Regarding `O=C(O)[C@H](c1ccccc1)N1C(=O)C(=Cc2ccc(-c3ccc(Cl)cc3)o2)SC1=S` [Compound B37], the pIC50 was above 5.00.

`O=C(O)C(c1ccccc1)N1C(=O)C(=Cc2cc(-c3cccc(C(F)(F)F)c3)co2)SC1=S` (stereo not shown) [Compound B38] showed a pIC50 above 5.00.

In the case of `O=C(O)CCCCCN1C(=O)C(=Cc2cc(-c3cccc(C(F)(F)F)c3)co2)SC1=S` [Compound B39], the pIC50 was 4.40 to 4.96.

In turn, `O=C(O)C(Cc1ccccc1)N1C(=O)C(=Cc2ccc(-c3cccc(C(F)(F)F)c3)o2)SC1=S` (stereo not shown) [Compound B40] had a pIC50 above 5.00.

With `O=C(O)C(Cc1ccccc1)N1C(=O)C(=Cc2ccc(-c3ccccc3Cl)o2)SC1=S` (stereo not shown) [Compound B41], the pIC50 was above 5.00.

Molecule `O=C(O)C(Cc1ccccc1)N1C(=O)C(=Cc2ccc(-c3ccc(Cl)cc3)o2)SC1=S` (stereo not shown) [Compound B42] had a pIC50 above 5.00.

Molecule `O=C(O)CN1C(=O)C(=Cc2ccc(-c3ccc(Cl)cc3Cl)o2)SC1=S` [Compound B43] gave a pIC50 above 5.00.

`O=C(O)C(c1ccccc1)N1C(=O)C(=Cc2ccc(-c3ccc(Cl)cc3Cl)o2)SC1=S` (stereo not shown) [Compound B44] gave a pIC50 above 5.00.

The molecule `O=C(O)C(Cc1ccccc1)N1C(=O)C(=Cc2ccc(-c3ccc(Cl)cc3Cl)o2)SC1=S` (stereo not shown) [Compound B45] showed a pIC50 above 5.00.

In turn, `O=C(O)C(c1ccccc1)N1C(=O)C(=Cc2ccc(-c3cc(Cl)ccc3Cl)o2)SC1=S` (stereo not shown) [Compound B46] gave a pIC50 above 5.00.

In the case of `O=C(O)C(Cc1ccccc1)N1C(=O)C(=Cc2ccc(-c3cc(Cl)ccc3Cl)o2)SC1=S` (stereo not shown) [Compound B47], the pIC50 is above 5.00.

With `O=C(O)C(c1ccccc1)N1C(=O)C(=Cc2ccc(-c3c(Cl)cccc3Cl)o2)SC1=S` (stereo not shown) [Compound B48], the pIC50 is above 5.00.

`O=C(O)C(Cc1ccccc1)N1C(=O)C(=Cc2ccc(-c3c(Cl)cccc3Cl)o2)SC1=S` (stereo not shown) [Compound B49] gave a pIC50 above 5.00.

As for `O=C(O)C(c1ccccc1)N1C(=O)C(=Cc2ccc(-c3cccc(C(F)(F)F)c3)o2)SC1=S` (stereo not shown) [Compound B50], the pIC50 was above 5.00.

With `O=C(O)C(Cc1ccc(O)cc1)N1C(=O)C(=Cc2ccc(-c3ccccc3Cl)o2)SC1=S` (stereo not shown) [Compound B51], the pIC50 was above 5.00.

In the case of `O=C(O)C(Cc1ccc(O)cc1)N1C(=O)C(=Cc2ccc(-c3cccc(C(F)(F)F)c3)o2)SC1=S` (stereo not shown) [Compound B52], the pIC50 is above 5.00.

As for `O=C(O)C(Cc1ccc(O)cc1)N1C(=O)C(=Cc2ccc(-c3ccc(Cl)cc3)o2)SC1=S` (stereo not shown) [Compound B53], the pIC50 is above 5.00.

In turn, `O=C(O)C(Cc1ccc(O)c(O)c1)N1C(=O)C(=Cc2ccc(-c3ccccc3Cl)o2)SC1=S` (stereo not shown) [Compound B54] gave a pIC50 of 4.40 to 4.96.

As to `O=C(O)C(Cc1ccc(O)c(O)c1)N1C(=O)C(=Cc2ccc(-c3cccc(C(F)(F)F)c3)o2)SC1=S` (stereo not shown) [Compound B55], the pIC50 is above 5.00.

As for `O=C(O)C(Cc1ccc(O)c(O)c1)N1C(=O)C(=Cc2ccc(-c3ccc(Cl)cc3)o2)SC1=S` (stereo not shown) [Compound B56], the pIC50 is 4.40 to 4.96.

`O=C(O)C(Cc1ccccc1)N1C(=O)C(=Cc2ccc(-c3ccc(Cc4ccccc4)cc3)o2)SC1=S` (stereo not shown) [Compound B57]: the pIC50 is above 5.00.

For the molecule `O=C(O)C(Cc1ccc(O)cc1)N1C(=O)C(=Cc2ccc(-c3ccc(Cc4ccccc4)cc3)o2)SC1=S` (stereo not shown) [Compound B58], the negative-log IC50 (pIC50) was above 5.00.

In turn, `O=C(O)C(Cc1ccc(O)c(O)c1)N1C(=O)C(=Cc2ccc(-c3ccc(Cc4ccccc4)cc3)o2)SC1=S` (stereo not shown) [Compound B59] had a pIC50 above 5.00.

In turn, `O=C(O)CN1C(=O)C(=Cc2ccc(-c3ccc(Cl)cc3)o2)SC1=S` [Compound B60] had a pIC50 of 4.40 to 4.96.

`O=C(O)CN1C(=O)C(=Cc2ccc(-c3cc(C(F)(F)F)ccc3Cl)o2)SC1=S` [Compound B61] gave a pIC50 above 5.00.

Turning to `O=C(O)C(Cc1ccc(O)cc1)N1C(=O)C(=Cc2ccc(-c3cc(Cl)ccc3Cl)o2)SC1=S` (stereo not shown) [Compound B62], the negative logarithm of the IC50 (pIC50) is above 5.00.

`O=C(O)C(Cc1ccc(O)cc1)N1C(=O)C(=Cc2ccc(-c3cc(C(F)(F)F)ccc3Cl)o2)SC1=S` (stereo not shown) [Compound B63] gave a pIC50 above 5.00.

The molecule `O=C(O)C(Cc1ccc(O)c(O)c1)N1C(=O)C(=Cc2ccc(-c3cc(Cl)ccc3Cl)o2)SC1=S` (stereo not shown) [Compound B64] showed a pIC50 above 5.00.

On to `O=C(O)C(Cc1ccc(O)c(O)c1)N1C(=O)C(=Cc2ccc(-c3cc(C(F)(F)F)ccc3Cl)o2)SC1=S` (stereo not shown) [Compound B65], for which the negative logarithm of the IC50 (pIC50) is above 5.00.

Regarding `CC(C)c1ccc(-c2ccc(C=C3SC(=S)N(C(C(=O)O)c4ccccc4)C3=O)o2)cc1` (stereo not shown) [Compound B66], the pIC50 is above 5.00.

`CC(C)c1ccc(-c2ccc(C=C3SC(=S)N(C(Cc4ccccc4)C(=O)O)C3=O)o2)cc1` (stereo not shown) [Compound B67] had a pIC50 above 5.00.

On to `CC(C)c1ccc(-c2ccc(C=C3SC(=S)N(C(Cc4ccc(O)c(O)c4)C(=O)O)C3=O)o2)cc1` (stereo not shown) [Compound B68], for which the pIC50 is above 5.00.

`O=C(O)CN1C(=O)C(=Cc2ccc(-c3ccc(C(=O)c4ccccc4)cc3)o2)SC1=S` [Compound B69] showed a pIC50 of 4.40 to 4.96.

On to `CC(C)c1ccc(-c2ccc(C=C3SC(=S)N(CC(=O)O)C3=O)o2)cc1` [Compound B70], for which the pIC50 is 4.40 to 4.96.

For the molecule `O=C(O)CN1C(=O)C(=Cc2ccc(-c3ccc(CSc4ccccc4)cc3)o2)SC1=S` [Compound B71], the pIC50 is 4.40 to 4.96.

On to `CC(C)c1cccc(-c2ccc(C=C3SC(=S)N(CC(=O)O)C3=O)o2)c1` [Compound B72], for which the pIC50 is above 5.00.

`O=C(O)CN1C(=O)C(=Cc2ccc(-c3ccc(C4CCCCC4)cc3)o2)SC1=S` [Compound B73] showed a pIC50 above 5.00.

In turn, `CC(C)(C)c1ccc(-c2ccc(C=C3SC(=S)N(CC(=O)O)C3=O)o2)cc1` [Compound B74] gave a negative logarithm of the IC50 (pIC50) above 5.00.

Molecule `CC(C)c1cccc(-c2ccc(C=C3SC(=S)N(C(Cc4ccccc4)C(=O)O)C3=O)o2)c1` (stereo not shown) [Compound B75] showed a pIC50 above 5.00.

On to `O=C(O)C(Cc1ccccc1)N1C(=O)C(=Cc2ccc(-c3ccc(CSc4ccccc4)cc3)o2)SC1=S` (stereo not shown) [Compound B76], for which the pIC50 was above 5.00.

For the molecule `CC(C)Cc1ccc(-c2ccc(C=C3SC(=S)N(CC(=O)O)C3=O)o2)cc1` [Compound B77], the pIC50 was above 5.00.

As to `CC(C)Cc1ccc(-c2ccc(C=C3SC(=S)N(C(C(=O)O)c4ccccc4)C3=O)o2)cc1` (stereo not shown) [Compound B78], the pIC50 is above 5.00.

Regarding `O=C(O)CN1C(=O)C(=Cc2ccc(-c3ccc(Cc4ccc(Cl)cc4)cc3)o2)SC1=S` [Compound B79], the pIC50 was above 5.00.

The molecule `O=C(O)CN1C(=O)C(=Cc2ccc(-c3ccc(C4CCCC4)cc3)o2)SC1=S` [Compound B81] gave a pIC50 above 5.00.

`C=C(c1ccccc1)c1ccc(-c2ccc(C=C3SC(=S)N(CC(=O)O)C3=O)o2)cc1` [Compound B82]: the pIC50 is above 5.00.

In turn, `CN(C)c1ccc(-c2ccc(C=C3SC(=S)N(CC(=O)O)C3=O)o2)cc1` [Compound B84] had a pIC50 of 4.40 to 4.96.

Turning to `O=C(O)CN1C(=O)C(=Cc2ccc(-c3cccc(Cl)c3Cl)o2)SC1=S` [Compound B85], the pIC50 was above 5.00.

`CN(C)c1ccc(-c2ccc(C=C3SC(=S)N(CC(=O)O)C3=O)o2)cc1` [Compound B86] showed a pIC50 of 4.10 to 4.39.

`Cc1ccccc1-c1ccc(C=C2SC(=S)N(CC(=O)O)C2=O)o1` [Compound B87] showed a pIC50 of 4.10 to 4.39.

Take `COc1ccccc1-c1ccc(C=C2SC(=S)N(CC(=O)O)C2=O)o1` [Compound B88]: the pIC50 is 4.40 to 4.96.

With `N#Cc1c(F)cccc1-c1ccc(C=C2SC(=S)N(C(C(=O)O)c3ccccc3)C2=O)o1` (stereo not shown) [Compound B89], the pIC50 is 4.40 to 4.96.

As for `O=C(O)CCCN1C(=O)C(=Cc2ccc(-c3ccccc3Cl)o2)SC1=S` [Compound B90], the pIC50 is above 5.00.

As to `O=C(O)CCCN1C(=O)C(=Cc2ccc(-c3cccc(C(F)(F)F)c3)o2)SC1=S` [Compound B91], the pIC50 is above 5.00.

Regarding `Cc1cc(N(C)C)ccc1-c1ccc(C=C2SC(=S)N(CCCC(=O)O)C2=O)o1` [Compound B92], the pIC50 is 4.40 to 4.96.

The molecule `CS(=O)(=O)c1ccc(-c2ccc(C=C3SC(=S)N(CCCC(=O)O)C3=O)o2)cc1` [Compound B93] showed a pIC50 of 4.40 to 4.96.

(Values after patent US8338465B2, “Cyclic carboxylic acid rhodanine derivatives for the treatment and prevention of tuberculosis” (priority 2006, dated 2012).)
